One data set has as its target T1, Topoisomerase II (Homo sapiens, UniProt P11388).
T1 construct: purchased TopoGEN Inc., USA 2000H
Kind of data set: kDNA decatenation assay (Topoisomerase II inhibition). The following applies: 100 μM. The format is biochemical. As for the experimental part: Kinetoplast DNA (kDNA) is a catenated network of mitochondrial DNA seen in trypanosomes.
Topoisomerase II activity was determined using kit (TopoGEN Inc., USA, Cat no. 2000H). […] Next, 4 U of topoisomerase II was added and the reaction was allowed to proceed for 60 min at 37 °C. The reaction was stopped by the addition of 1/10 volume of 1 mg/mL proteinase K and incubated for 15 min at 37 °C. The reaction was quenched via the addition of loading buffer (350 mM Tris, pH 6.8, 12% SDS, 0.012% bromophenol blue, 47% glycerol) and was then analyzed by electrophoresis on a 1% agarose gel in TBE buffer (89 mM Tris, 89 mM borate, and 2 mM Na-EDTA, pH 8.3) for 0.5 h at 140 V. The gel was visualized under UV illumination and photographed on an Alpha Imager.

For the next data set, the system named is BGC-823 cells. Nature of the data set: MTT cytotoxicity assay, BGC-823. In kind it is cell-based, human. The following applies: for IC50: Homo sapiens, BGC-823, MTT, drug exposure 48 h, mean ± SD (n = 3), read-out: Cytotoxic activity (IC50) BGC-823. The procedure:
(§1) Cytotoxicity of the podophyllum derivatives were determined by reading the absorbance at 492 nm on a multiplate reader (Thermo Fisher Scientific, Multiskan MK3). Cell cycle analysis and apoptosis analysis were analyzed by flow cytometry (Accuri C6, BD). Immunofluorescence images were recorded using laser scanning microscope (Perkin-Elmer & Olympus, UltraView VoX & Ix81). The gel for the decatenation of kDNA by Topoisomerase II study was photographed with UV illumination, Tanon 1600 (Tanon Science & Technology Co., Ltd., Shanghai). The nitrocellulose blotting membrane for western blot analysis was visualized using X-ray film processor and X-ray film, Fujifilm SUPER RX-N-C.
(§2) Cytotoxicity assay was performed on human lung adenocarcinoma epithelial cell line (A549), henrietta lacks strain of cancer cells (HeLa), human gastric carcinoma cell line (BGC 823), and normal human hepatocyte cell line (HL-7702). Cells (3500–13,000) in a 100 μL culture medium per well were seeded into 96-well microtest plates (Falcon, CA). A549 cell lines, HeLa cell lines and HL-7702 cell lines were cultured in DMEM supplemented with 10% CS, 100 mg/L penicillin G, 100 mg/L streptomycin. BGC 823 cell lines were cultured in RPMI medium 1640 supplemented with 10% CS, 100 mg/L penicillin G, and 100 mg/L streptomycin. The cells were incubated at 37 °C, in a humidified atmosphere with 5% CO2 for 48 h. For all cell lines, the microculture tetrazolium [3-(4, 5-dimethylthiazol-2-yl)-2, 5-diphenyltetrazolium bromide, MTT; Sigma, St. Louis, MO] assay was performed to measure the cytotoxic effects. Drug stock solutions (the each drug concentration was 0.5, 1, 10, 20, 50, 100, 200, and 500 μM, respectively) were prepared in DMSO and the final solvent concentration was ≤ 2% DMSO (v/v), a concentration without effect on cell replication. Initial seeding densities varied among the cell lines to ensure a final absorbance reading in control (untreated) cultures in the range 0.6–0.8 A492 units. Drug exposure was for 2 days, and the IC50 value, the drug concentration that reduced the absorbance by 50%, was interpolated from dose-response data. Each test was performed in triplicate, and absorbance readings varied no more than 5%. Data presented as means ± standard deviation (SD). Statistical analyses were performed by the analysis of variance (ANOVA). All statistical analyses were performed using Origin version 8.0 ([…], OriginLab Corp., Northampton, MA, USA). Sigmoidal dose responses and non-linear regression analyses were undertaken to identify half-maximal concentrations for each of the drugs. To evaluate differences in IC50 concentrations, analysis of variance combined with Tukey’s multiple range test was used.
(In general: Formazan colour is commonly taken as a measure of viable cells.)

In data set [1] the test system is HeLa cells. Kind of data set: MTT cytotoxicity assay, HeLa. The format is cell-based, human. The following applies: for IC50: Homo sapiens, HeLa, MTT, drug exposure 48 h, mean ± SD (n = 3), read-out: Cytotoxic activity (IC50) HeLa; for IC50 fold difference vs the corresponding C-NH compound (1N or 1′N): HeLa cells. As for the experimental part: as §1, §2
A further data set concerns A549 cells. Nature of the data set: MTT cytotoxicity assay, A549. The format is cell-based, human. The following applies: for IC50: Homo sapiens, A549, 48 h, MTT, drug exposure 48 h, mean ± SD (n = 3), read-out: Cytotoxic activity (IC50) A549. As for the experimental part:
as §1, §2

In data set [2] the test system is HeLa cells. Kind of data set: Western blot of apoptosis pathway proteins in HeLa cells. The format is cell-based, human. To be noted: 1 μM; for apoptotic pathways activated (BimEL, caspase-9, -8, -3, PARP): 12–48 h; for activation of ATM, ATR, caspase-8, 9 and 3: 0-48 h. As for the experimental part:
Cells were lysed by adding 100 μL of RIPA buffer (50 mM Tris, pH 8.0, 150 mM NaCl, 1% TX-100, 0.5% sodium deoxycholate, 0.1% SDS) with 1% Protease Inhibitor PMSF. Each sample was then vigorously vortexed twice for 15 seconds, with a 30-minute incubation on ice following each agitation. The cellular debris was pelleted (12,000 rpm, 10 min), and then 100 μL of the protein suspension was transferred to fresh 0.5 mL tubes. The protein levels were quantified using a standard BCA (Thermo Scientific), after which the samples were diluted with deionized water to achieve equal protein concentrations for all samples. Prior to analyzing the samples, 5 × Loading buffer (350 mM Tris, pH 6.8, 12% SDS, 0.012% bromophenol blue, 47% glycerol) with 5% β-mercaptoethanol was added to each sample to achieve a final 1 × concentration, after which the samples were incubated at 95 °C for 10 minutes to denature the protein samples. 20–30 μg of protein was added to and run on a 15-well 4–20% Tris-HCl gel. The gel was equilibrated buffer (39 mM glycine, 48 mM, 0.037 g/L SDS, 200 mL/L methanol) for 5 minutes, then the protein were transferred to a PVDF membrane, which was incubated with 5% fetal bovine serum in TBST (20 mM Tris-HCl, pH 8.0, 150 mM, 0.5 mL/L Tween-20) for 1 h to block non-specific binding, and then probed for the primary antibody at a 1:1000 dilution with a blocking agent in TBST for 1 h at room temperature. The blot was washed with TBST, and then probed with a secondary antibody in TBST for 1 hour at room temperature. The blot was washed with TBST, and then The ECL detection kit (Millipore) was added to catalyze oxidation of luminol to emit chemiluminescence, and the membrane was visualized using X-ray film processor and X-ray film (Fujifilm SUPER RX-N-C).
Background: A western blot detects proteins with antibodies after separation by electrophoresis.

Data set [3] deals with HeLa cells. Kind of data set: Flow cytometry cell cycle analysis in HeLa cells. In kind it is cell-based, human. The following applies: for G2/M phase arrest: 0.1 μM; for percentage of G2/M phase cells: 1 μM; for percentage of G2/M phase cells / percentage of G2/M phase cells (maximum): 48 h; for percentage of G2/M phase cells (maximum): 5 μM. The procedure: (§3) For the cell cycle analysis, HeLa cells were treated with test compounds for 6, 12, 24 and 48 h at 37 °C in 6-well plates. Appropriate controls, in which cells were mock-treated by DMSO (<1%) for the same durations, were also set up. After being treated, all cells were trypsinized and collected, washed twice with PBS, added with 4 °C 70% ethanol (10 mL) and stored overnight at 4 °C. After this, cells were spun down at 1500 rpm for 5 min, washed once with PBS, and then treated with the mixture of 10 μL RNase (10 mg/mL), 50 μL propidium iodide (1 mg/mL) and 940 μL 1 × PBS, incubated at room temperature for 30 min in the dark. The stained cells were analyzed by flow cytometry. The result was analyzed with ModFit LT^TM 3.2 version software. For the apoptosis determination, after 6, 12, 24 and 48 h treatment with test compounds, HeLa cells were harvested, re-suspend in 500 μL annexin-binding buffer (10mM HEPES, 140 mM NaCl, 2.5 mM CaCl2, pH 7.4) at the cell density of about 10^6 cells/mL and stained with 5 μL annexin V and 5 μL propidium iodide for 15 min at room temperature. Changes in intracellular ROS levels were determined by measuring the oxidative conversion of cell permeable 2′,7′-dichlorofluorescein diacetate (DCFH-DA) to fluorescent di-chlorofluorescein (DCF) in flow cytometry (BD Accuri C6). Cells in 6-well culture dishes were incubated with DMEM for 6, 12, 24 and 48 h in the absence or presence of test compounds. The cells were washed with DMEM and incubated with DCFH-DA (10 μM) at 37 °C for 30 min. Then DCF fluorescence of 10,000 cells was detected by flow cytometry.
Background: In flow cytometry, cells or beads pass a laser one at a time.

The nature of data set [4]: MTT cytotoxicity assay, normal hepatocyte HL-7702. In kind it is cell-based. The following applies: HL-7702 cells (normal hepatocyte cell line), normal human hepatocyte cell line, drug exposure 48 h, mean ± SD (n = 3), read-out: Cytotoxic activity (IC50) HL-7702. The procedure:
as §1, §2

The test system of data set [5] is HeLa cells. Kind of data set: Flow cytometry ROS (DCFH-DA) in HeLa cells. In kind it is cell-based, human. To be noted: for fluorescence intensity of ROS: 10 μM. The procedure:
as §3

Where [6] appears, read: before the 48 h change (24 h induction).

We go through five molecules from PMC4595834, “Comparison of carbon-sulfur and carbon-amine bond in therapeutic drug: 4β-S-aromatic heterocyclic podophyllum derivatives display antitumor activity” (Scientific Reports, 2015).

T1 sequence (P11388 whole entry): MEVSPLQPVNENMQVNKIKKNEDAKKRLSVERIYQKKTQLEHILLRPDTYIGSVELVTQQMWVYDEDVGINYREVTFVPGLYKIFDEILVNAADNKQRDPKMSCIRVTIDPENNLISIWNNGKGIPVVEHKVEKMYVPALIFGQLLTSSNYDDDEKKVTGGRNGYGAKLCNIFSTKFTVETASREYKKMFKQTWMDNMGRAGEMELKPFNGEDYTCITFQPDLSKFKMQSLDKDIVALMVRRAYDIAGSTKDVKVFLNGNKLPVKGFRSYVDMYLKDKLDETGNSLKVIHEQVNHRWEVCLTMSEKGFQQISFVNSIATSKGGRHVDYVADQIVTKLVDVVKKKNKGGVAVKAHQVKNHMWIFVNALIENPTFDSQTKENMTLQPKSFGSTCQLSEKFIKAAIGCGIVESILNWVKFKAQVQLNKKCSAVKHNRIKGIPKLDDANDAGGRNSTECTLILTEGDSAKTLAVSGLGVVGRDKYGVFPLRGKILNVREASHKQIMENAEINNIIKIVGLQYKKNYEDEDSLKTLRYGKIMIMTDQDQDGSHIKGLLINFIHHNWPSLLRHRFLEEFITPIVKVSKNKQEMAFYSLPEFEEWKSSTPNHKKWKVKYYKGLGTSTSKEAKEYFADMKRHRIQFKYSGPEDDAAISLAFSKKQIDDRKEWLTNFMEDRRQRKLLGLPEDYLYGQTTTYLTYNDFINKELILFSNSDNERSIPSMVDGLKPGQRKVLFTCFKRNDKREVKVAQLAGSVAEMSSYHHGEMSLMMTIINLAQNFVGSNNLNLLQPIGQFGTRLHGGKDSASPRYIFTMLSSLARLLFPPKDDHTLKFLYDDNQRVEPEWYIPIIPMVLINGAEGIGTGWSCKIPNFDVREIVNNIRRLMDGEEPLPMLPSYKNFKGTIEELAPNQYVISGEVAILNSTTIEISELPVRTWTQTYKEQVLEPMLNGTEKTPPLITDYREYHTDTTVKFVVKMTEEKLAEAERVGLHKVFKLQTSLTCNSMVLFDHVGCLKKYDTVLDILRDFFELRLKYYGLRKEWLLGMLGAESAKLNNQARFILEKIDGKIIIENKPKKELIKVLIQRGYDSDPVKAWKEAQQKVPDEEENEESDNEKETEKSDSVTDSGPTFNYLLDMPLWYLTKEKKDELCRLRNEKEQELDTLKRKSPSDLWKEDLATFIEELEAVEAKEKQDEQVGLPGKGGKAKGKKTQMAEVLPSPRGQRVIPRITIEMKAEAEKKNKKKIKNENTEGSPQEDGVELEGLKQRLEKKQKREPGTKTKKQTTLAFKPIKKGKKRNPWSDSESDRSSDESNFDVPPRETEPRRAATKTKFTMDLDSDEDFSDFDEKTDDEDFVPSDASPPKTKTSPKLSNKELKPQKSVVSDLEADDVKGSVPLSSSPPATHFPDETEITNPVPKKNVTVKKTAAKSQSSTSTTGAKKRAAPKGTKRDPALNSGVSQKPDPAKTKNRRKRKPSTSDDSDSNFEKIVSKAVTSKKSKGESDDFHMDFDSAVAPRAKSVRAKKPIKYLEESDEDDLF

A word on the IC50: it is the concentration at which inhibition is half-maximal. Turning to `COc1cc([C@@H]2c3cc4c(cc3[C@@H](Sc3ccccn3)[C@H]3COC(=O)[C@H]23)OCO4)cc(OC)c1O` [3′S, 4β-S-(pyridine-2)-4-deoxy-4′-demethyl-podophyllotoxin], at Topoisomerase II, the “inhibition of catalytic activity of Topo II (kDNA decatenation)” value is given as “nearly inhibited”. The IC50 amounted to 10.3 ± 0.34 µM in the data set with BGC-823 cells, 5.6 ± 0.39 µM in the data set with HeLa cells [1] and 3.85 ± 0.35 µM in the data set with A549 cells.
`COc1cc([C@@H]2c3cc4c(cc3[C@@H](Nc3nc[nH]n3)[C@H]3COC(=O)[C@H]23)OCO4)cc(OC)c1OC` [Compound 1N, 4β-NH-(1,2,4-trizole-3)-4-deoxy-podophyllotoxin]: the values for the concentration for half-maximal inhibition (IC50) in the data set on BGC-823 cells, in the data set on HeLa cells [1] and in the data set with A549 cells were 1.25 ± 0.13 µM, 3.85 ± 0.21 µM and 5.33 ± 0.52 µM, respectively. The “apoptotic pathways activated (BimEL, caspase-9, -8, -3, PARP)” value in the data set with HeLa cells [2] is “only stimulated the mitochondrial apoptotic pathway”. The G2/M phase arrest entry in the data set on HeLa cells [3] is listed as “did not induce the G2/M phase arrest”. The “percentage of G2/M phase cells” value in the data set on HeLa cells [3] is “about 80%”. In addition, in the data set on HeLa cells [3], the “percentage of G2/M phase cells (maximum)” value was 80-90%. In data set [4], the half-maximal inhibitory concentration (IC50) at 48 h was found to be 21.2 ± 2.16 µM. The “fluorescence intensity of ROS” value in the data set with HeLa cells [5] (48 h induction, half (1S) or most (1N) of the cells) is recorded as 10^4–10^5; in the data set on HeLa cells [5] (setting [6]) it was 10^5–10^6.
On to `COc1cc([C@@H]2c3cc4c(cc3[C@@H](Sc3nc[nH]n3)[C@H]3COC(=O)[C@H]23)OCO4)cc(OC)c1OC` [Compound 1S, 4β-S-(1,3,4-trizole-2)-4-deoxy-podophyllotoxin], for which the “IC50 fold difference vs Compound 1N” value in the data set with BGC-823 cells (BGC-823 cells) was approximately 3 times. Also, the IC50 in the data set with BGC-823 cells was 0.34 ± 0.02 µM. Besides, in the data set with HeLa cells [1], the “IC50 fold difference vs the corresponding C-NH compound (1N or 1′N)” value is recorded as “about 29 times” and the IC50 came out at 0.17 ± 0.02 µM. In addition, the “IC50 fold difference vs Compound 1N” value in the data set on A549 cells (A549 cells) is listed as approximately 6 times. Also, the “apoptotic pathways activated (BimEL, caspase-9, -8, -3, PARP)” value with HeLa cells [2] was “activated the mitochondrial and the death receptor apoptotic pathways”. In the data set with HeLa cells [3], the G2/M phase arrest entry is “did not induce the G2/M phase arrest”, the “percentage of G2/M phase cells” value was “about 80%” and the “percentage of G2/M phase cells (maximum)” value was 80-90%. The concentration for half-maximal inhibition (IC50) at 48 h in data set [4] turned out to be 56.1 ± 3.54 µM. For the same molecule, in the data set with HeLa cells [5] (setting [6]), the “fluorescence intensity of ROS” value is 10^5–10^6. The “amount of ROS (fluorescence intensity × count of cells) improved compared with Compound 1N” value in the data set on HeLa cells [5] (48 h) was found to be 4.8 times.
As to `COc1cc([C@@H]2c3cc4c(cc3[C@@H](Nc3nc[nH]n3)[C@H]3COC(=O)[C@H]23)OCO4)cc(OC)c1O` [Compound 1′N, 4β-NH-(1,2,4-trizole-3)-4-deoxy-4′-demethyl-podophyllotoxin], the IC50 in the data set with BGC-823 cells stood at 15.6 ± 0.41 µM; in the data set with HeLa cells [1], 4.36 ± 0.42 µM; in the data set with A549 cells, 4.22 ± 0.43 µM. The “activation of ATM, ATR, caspase-8, 9 and 3” value with HeLa cells [2] is reported as “significantly weaker signal”. Further, the IC50 at 48 h in data set [4] came to 38.6 ± 2.52 µM.
With `COc1cc([C@@H]2c3cc4c(cc3[C@@H](Sc3nc[nH]n3)[C@H]3COC(=O)[C@H]23)OCO4)cc(OC)c1O` [Compound 1′S, 4β-S-(1,3,4-trizole-2)-4-deoxy-4′-demethylepipodophyllotoxin], at Topoisomerase II, the “inhibition of catalytic activity of Topo II (kDNA decatenation)” value is “nearly inhibited”. The values for the IC50 with BGC-823 cells, with HeLa cells [1] and with A549 cells were 8.38 ± 0.53 µM, 0.32 ± 0.03 µM and 3.85 ± 0.38 µM, respectively. In addition, the “IC50 fold difference vs the corresponding C-NH compound (1N or 1′N)” value in the data set on HeLa cells [1] is reported as 16 times. Moreover, the “activation of ATM, ATR, caspase-8, 9 and 3” value with HeLa cells [2] is recorded as “activation of all these proteins”. Further, the IC50 at 48 h in data set [4] came to 43.2 ± 1.66 µM.
